Experimental findings from PubChem BioAssay (NCI) are described below.

Some test systems named below: SR leukemia; M14 melanoma; SF-295 CNS; HCT-15 colon; SK-MEL-2 melanoma; ACHN renal; LOX IMVI melanoma; EKVX NSCLC; MALME-3M melanoma; SK-MEL-28 melanoma.
Test in all cases: NCI tumour cell line growth inhibition, 48 h

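Test compounds were applied to cells in 96-well plates for 48 hours at 5 doses. GI50 is the concentration that inhibits growth by half. TGI is the concentration that stops growth completely.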 Where a SMILES comes first, the peptide text is derived from it. Bounds are passed on as bounds.

Take `CSC1=N/C(=C\c2ccc(C)cc2)C(=O)N1CN1CCOCC1`: the TGI in the assay on SR leukemia, with M14 melanoma, with SF-295 CNS, with HCT-15 colon, with SK-MEL-2 melanoma and in the assay with ACHN renal was greater than 100 µM throughout. Besides, the TGI in the assay with LOX IMVI melanoma, with EKVX NSCLC and in the assay on MALME-3M melanoma was greater than 100 µM each time.
In the case of `CCOC(=O)C1C(=O)CC(O)(OCC)C(C(=O)OCC)C1c1ccc(OC)cc1` (stereo not drawn), the TGI with SR leukemia, with SK-MEL-28 melanoma, in the assay with SF-295 CNS, with HCT-15 colon, in the assay on SK-MEL-2 melanoma and with ACHN renal was greater than 100 µM each time. Besides, the TGI in the assay on LOX IMVI melanoma, with EKVX NSCLC and in the assay with MALME-3M melanoma was greater than 100 µM each time.
`CCN1CC2=C(N=c3s/c(=C\c4ccc(Cl)cc4)c(=O)n3C2c2ccc(Cl)cc2)/C(=C/c2ccc(Cl)cc2)C1` (stereo not drawn): the TGI in the assay on M14 melanoma, with SK-MEL-28 melanoma, with SF-295 CNS, in the assay on HCT-15 colon, with SK-MEL-2 melanoma and in the assay on ACHN renal was greater than 100 µM in each case. The TGI in the assay on LOX IMVI melanoma, with EKVX NSCLC and in the assay with MALME-3M melanoma was greater than 100 µM in each case.
As to `CCOC(=O)c1nc2cc(N3CCOCC3)c(F)cc2[nH]c1=O`, the TGI in the assay with SR leukemia, with M14 melanoma, in the assay with SK-MEL-28 melanoma, with SF-295 CNS, with HCT-15 colon and in the assay with SK-MEL-2 melanoma was greater than 100 µM throughout. The TGI in the assay on ACHN renal, in the assay with EKVX NSCLC and with MALME-3M melanoma was greater than 100 µM throughout.
In the case of `CNc1ncnc(Sc2nc(N)nc3nc[nH]c23)c1[N+](=O)[O-]`, the TGI in the assay with M14 melanoma is 19.4 µM; in the assay with SK-MEL-28 melanoma it was 22.2 µM; in the assay on SF-295 CNS, greater than 100 µM; with HCT-15 colon it was 14 µM; in the assay on SK-MEL-2 melanoma, 8.9 µM; in the assay with ACHN renal, 14.7 µM. Also, the TGI with LOX IMVI melanoma stood at 12.2 µM; in the assay with EKVX NSCLC it was 47 µM; in the assay on MALME-3M melanoma it was 18.9 µM.
For the compound `CCOC(=O)c1cc2cc(N(C(C)=O)C(C)=O)ccc2s1`, the TGI in the assay on M14 melanoma is greater than 100 µM; in the assay with SK-MEL-28 melanoma, greater than 100 µM; in the assay on SF-295 CNS, greater than 100 µM; with HCT-15 colon, greater than 100 µM; in the assay with SK-MEL-2 melanoma, 51.6 µM; in the assay on ACHN renal, 62.3 µM. For the same compound, the TGI in the assay on LOX IMVI melanoma is greater than 100 µM; in the assay with EKVX NSCLC, 55.9 µM; in the assay on MALME-3M melanoma it was 46.1 µM.
Regarding `O=C(NN=C1CCN(Cc2ccccc2)CC1)C(O)(c1ccccc1)c1ccccc1`, the TGI in the assay on SR leukemia, in the assay on M14 melanoma, in the assay with SK-MEL-28 melanoma, in the assay on SF-295 CNS, in the assay on HCT-15 colon and in the assay on LOX IMVI melanoma was greater than 100 µM in each case. Moreover, the TGI in the assay with EKVX NSCLC and in the assay on MALME-3M melanoma was greater than 100 µM throughout.
On to `CC1NC(=O)CNC(=O)CNC(=O)C(Cc2ccc(O)cc2)NC(=O)C(C(C)C)NC(=O)C(C)NC1=O` (stereo not drawn) (cyclo(GGAAVY); configuration not given here), for which the TGI in the assay with SK-MEL-28 melanoma, in the assay with SF-295 CNS, in the assay on HCT-15 colon, in the assay with SK-MEL-2 melanoma, in the assay on LOX IMVI melanoma and in the assay on EKVX NSCLC was greater than 100 µM each time. Further, the TGI in the assay with MALME-3M melanoma is greater than 100 µM. Moreover, the GI50 in the assay on MALME-3M melanoma was greater than 100 µM.
For the compound `CN(C)CCCNc1c(O)c2c(c(O)c1Cl)C(=O)C=CC2=O`, the TGI with M14 melanoma was 2.9 µM; in the assay on SK-MEL-28 melanoma, 2.85 µM; in the assay with SF-295 CNS it was 3.27 µM; with HCT-15 colon, 3.28 µM; in the assay with ACHN renal, greater than 10 µM; in the assay with LOX IMVI melanoma, 3.13 µM. The TGI in the assay with EKVX NSCLC is greater than 10 µM; with MALME-3M melanoma it was 3.25 µM.
On to `COc1ccc2c(c1)C(N)CC2=O` (stereo not drawn), for which the TGI with M14 melanoma is greater than 100 µM; in the assay with SK-MEL-28 melanoma it was greater than 100 µM; in the assay with SF-295 CNS it was greater than 100 µM; with HCT-15 colon, greater than 100 µM; with SK-MEL-2 melanoma, 74.1 µM; in the assay on ACHN renal it was greater than 100 µM. In the assay on EKVX NSCLC, this compound gave a TGI greater than 100 µM.
As for `O=C(O)CC(C(=O)O)c1ccccc1[N+](=O)[O-]` (stereo not drawn), the TGI in the assay on M14 melanoma, in the assay on SK-MEL-28 melanoma, with SF-295 CNS, with HCT-15 colon, in the assay with SK-MEL-2 melanoma and in the assay with ACHN renal was greater than 100 µM throughout. The TGI with LOX IMVI melanoma, with EKVX NSCLC and in the assay with MALME-3M melanoma was greater than 100 µM each time.
Take `NC(=O)NC(=O)c1cnccn1`: the TGI in the assay on M14 melanoma, in the assay on SK-MEL-28 melanoma, in the assay with SF-295 CNS, with HCT-15 colon, with SK-MEL-2 melanoma and with ACHN renal was greater than 100 µM in each case. Moreover, the TGI with LOX IMVI melanoma, in the assay on EKVX NSCLC and in the assay with MALME-3M melanoma was greater than 100 µM each time.
On to `Cc1[nH]c2ncn3nc(C(Cl)(Cl)Cl)nc3c2c1Cc1ccccc1`, for which the TGI in the assay with M14 melanoma, in the assay on SK-MEL-28 melanoma, in the assay with SF-295 CNS, with HCT-15 colon, with SK-MEL-2 melanoma and in the assay with ACHN renal was greater than 100 µM each time. The TGI in the assay on EKVX NSCLC and in the assay on MALME-3M melanoma was greater than 100 µM each time.
For the compound `CC(=O)ON(OC(C)=O)c1ccc(C)cc1`, the TGI with M14 melanoma, in the assay with SK-MEL-28 melanoma, in the assay on SF-295 CNS, in the assay with HCT-15 colon, in the assay with SK-MEL-2 melanoma and with ACHN renal was greater than 100 µM in each case. For the same compound, the TGI in the assay with EKVX NSCLC and in the assay with MALME-3M melanoma was greater than 100 µM each time.
`Cc1ccc2c(c1)SSSSS2`: the TGI with SR leukemia was greater than 100 µM; in the assay with M14 melanoma, 58.6 µM; in the assay with SK-MEL-28 melanoma, 65.4 µM; in the assay with SF-295 CNS it was 37 µM; in the assay on HCT-15 colon, 30 µM; in the assay on ACHN renal it was 34.9 µM. Further, the TGI is 34.4 µM with LOX IMVI melanoma, 65.1 µM in the assay with EKVX NSCLC and 44.6 µM in the assay with MALME-3M melanoma.
